These results are taken from patent US20240174690A1, “ANNULATED 2-AMINO-3-CYANO THIOPHENES AND DERIVATIVES FOR THE TREATMENT OF CANCER” (BOEHRINGER INGELHEIM INTERNATIONAL GMBH, priority 2021, published 2024).

In one data set the test system is LOVO cells. Kind of data set: LOVO CTG proliferation assay (120 h) (CRC, G13D). It is filed as cell-based. The note with it: Homo sapiens, CTG 120 h. Summed up:
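LOVO cells, 1000 per well in DMEM + 10% FCS, were plated overnight and then dosed with compound from DMSO stock. After 120 h at 37 °C, viability was read by CellTiter-Glo luminescence as a percentage of DMSO controls. IC50 was derived by four-parameter non-linear regression.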

For another data set, the target named is CYP3A4 (Homo sapiens (Human), UniProt P08684). As to the kind of experiment: Mechanism based inhibition of CYP3A4 assay (MBI 3A4). It is filed as in vitro ADME. To be noted: hydroxy-midazolam formation after 30 min vs 0 min preincubation, 25 uM, human liver microsomes. Summed up: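 Human CYP3A4 activity after 30 min vs 0 min preincubation with test compound; incubate then diluted 1:10 and midazolam added for a 15 min main incubation. Quenched with acetonitrile; hydroxy-midazolam quantified by LC/MS-MS and expressed as % of the 0 min preincubation formation.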

The next data set deals with SK-CO-1 cells. Kind of data set: SK-CO-1 CTG proliferation assay (120 h) (CRC, G12V). Type of data set: cell-based. The note with it: Homo sapiens; SK-CO-1 cells (CRC, G12V), CTG 120 h. Summed up:
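SK-CO-1 colorectal cells (KRAS G12V), 500 per well in EMEM + 10% FCS, dosed with compound the day after seeding and grown 120 h at 37 °C. Viability by CellTiter-Glo luminescence as percent of DMSO control; IC50 from four-parameter non-linear regression.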

A further data set has as its system NCI-H2122 cells. As to the kind of experiment: NCI-H2122 CTG proliferation assay (120 h) (NSCLC, G12C). Type of data set: cell-based. The note with it: Homo sapiens. Summed up:
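NCI-H2122 cells (KRAS G12C NSCLC), 200 per well in RPMI with 10% FCS, were dosed with compound on day 1 and incubated 120 h at 37 °C. Viability was read by CellTiter-Glo luminescence as percent of DMSO control, and IC50 was fitted with a four-parameter model.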

The nature of data set [1]: Plasma protein binding assay (PPB), equilibrium dialysis, 10% FCS in PBS. The note with it: bovine, read-out: PPB 10% FCS (% fu). Type of data set: in vitro ADME. Summed up: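 Equilibrium dialysis (5-10 kg/mol cut-off membrane) of 1-10 μmol/L test compound in 10% FCS/PBS against PBS with or without dextran, 3-5 h at 37° C. Compound in each chamber quantified by LC-MS after protein precipitation; fu calculated from Cserum and Cbuffer.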

In data set [2] the test system is KRAS G12D-dependent Ba/F3 cells. Kind of data set: Ba/F3 proliferation assay, KRAS G12D. It is filed as cell-based. The note with it: Mus musculus, BaF3, 72 h, AlamarBlue. Summed up:
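Ba/F3 cells were retrovirally transduced with KRAS G12 mutant vectors, puromycin-selected (1 μg/mL) and grown without IL-3 to make them KRAS-dependent. Compounds were tested in technical duplicates, viability was read by AlamarBlue fluorescence, and values came from curve fitting.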

Chain of CYP3A4 (P08684 whole entry): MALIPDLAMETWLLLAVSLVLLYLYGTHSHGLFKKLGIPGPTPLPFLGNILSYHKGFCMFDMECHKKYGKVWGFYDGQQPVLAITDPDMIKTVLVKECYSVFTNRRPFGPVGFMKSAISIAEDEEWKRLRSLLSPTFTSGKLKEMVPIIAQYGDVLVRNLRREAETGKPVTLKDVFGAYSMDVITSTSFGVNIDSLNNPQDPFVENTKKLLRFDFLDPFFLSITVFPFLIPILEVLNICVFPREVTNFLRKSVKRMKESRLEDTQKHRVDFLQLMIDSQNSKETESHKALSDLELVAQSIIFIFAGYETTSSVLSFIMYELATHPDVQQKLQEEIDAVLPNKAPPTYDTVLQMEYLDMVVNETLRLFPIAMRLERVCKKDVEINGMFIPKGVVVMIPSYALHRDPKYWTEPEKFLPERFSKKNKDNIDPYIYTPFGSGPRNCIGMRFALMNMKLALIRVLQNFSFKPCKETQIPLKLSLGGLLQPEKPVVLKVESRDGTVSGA

`C[C@H](Oc1cc(-c2ccn(C[C@@H]3CCCO3)n2)nc(-c2noc3c2CCC[C@@]32CCCc3sc(N)c(C#N)c32)n1)[C@@H]1CCCN1C` [II-43]: the IC50 in the data set with LOVO cells is 120 nM; in the data set on SK-CO-1 cells, 46 nM; in the data set with NCI-H2122 cells, 102 nM; in data set [2], 34 nM. The “MBI 3A4” value at CYP3A4 amounted to 70%. Besides, the fraction unbound in data set [1] worked out at 0.11.

As for `C[C@H](Oc1cc(-n2ccc(C(=O)NC3(C)COC3)n2)nc(-c2noc3c2CCC[C@@]32CCCc3sc(N)c(C#N)c32)n1)[C@@H]1CCCN1C` [II-26], the IC50 in the data set on LOVO cells was 109 nM; with SK-CO-1 cells, 3 nM; with NCI-H2122 cells, 143 nM; in data set [2] it was 37 nM. The “MBI 3A4” value on CYP3A4 stood at 58%. Besides, in data set [1], the fraction unbound was 0.24.

With `C[C@H](Oc1cc(-c2ccn(C[C@@H](C)O)n2)nc(-c2onc3c2CCC[C@@]32CCCc3sc(N)c(C#N)c32)n1)[C@@H]1CCCN1C` [I-30], the IC50 in the data set with LOVO cells was determined as 66 nM; in the data set with SK-CO-1 cells, 31 nM; with NCI-H2122 cells it was 837 nM; in data set [2] it was 42 nM. Besides, on CYP3A4, the “MBI 3A4” value worked out at 77%. Moreover, in data set [1], the fraction unbound stood at 0.46.

With `C[C@H](Oc1cc(C2CCCO2)nc(-c2noc3c2CCC[C@@]32CCCc3sc(N)c(C#N)c32)n1)[C@@H]1CCCN1C` (stereo partly drawn) [II-44], the IC50 was 92 nM with LOVO cells, 193 nM in the data set on SK-CO-1 cells, 1580 nM with NCI-H2122 cells and 32 nM in data set [2]. Moreover, the “MBI 3A4” value on CYP3A4 is on record as 71%. Further, the fraction unbound in data set [1] was 0.39.

As for `C[C@H](Oc1cc(-c2ccn(C3COC3)n2)nc(-c2onc3c2CCC[C@@]32CCCc3sc(N)c(C#N)c32)n1)[C@@H]1CCCN1C` [I-34], the IC50 was 161 nM with LOVO cells, 84 nM with SK-CO-1 cells, 1070 nM with NCI-H2122 cells and 38 nM in data set [2]. In addition, the “MBI 3A4” value on CYP3A4 was determined as 67%. Further, the fraction unbound in data set [1] stood at 0.54.

In the case of `C[C@H](Oc1cc(-c2ccn(C)n2)nc(-c2noc3c2CCC[C@@]32CCCc3sc(N)c(C#N)c32)n1)[C@@H]1C[C@@H](F)CN1C` [II-27], the IC50 with LOVO cells is 345 nM; with SK-CO-1 cells, 115 nM; in the data set with NCI-H2122 cells it was 898 nM; in data set [2], 49 nM. Besides, at CYP3A4, the “MBI 3A4” value is 71%. For the same molecule, the fraction unbound in data set [1] came to 0.05.

As for `C[C@H](Oc1cc(N2CC[C@H](N(C)C)C2)nc(-c2noc3c2CCC[C@@]32CCCc3sc(N)c(C#N)c32)n1)[C@@H]1C[C@@H](F)CN1C` [II-15], the IC50 in the data set with LOVO cells was found to be 867 nM; in the data set on SK-CO-1 cells, 1250 nM; with NCI-H2122 cells, 2420 nM; in data set [2] it was 14 nM. At CYP3A4, the “MBI 3A4” value is reported as 76%. In data set [1], the fraction unbound amounted to 0.64.

Consider `CNC(=O)c1ccn(-c2cc(O[C@@H](C)[C@@H]3CCCN3C)nc(-c3noc4c3CCC[C@@]43CCCc4sc(N)c(C#N)c43)n2)n1` [II-20], for which the IC50 in the data set on LOVO cells turned out to be 158 nM; in the data set on SK-CO-1 cells, 9 nM; in the data set with NCI-H2122 cells, 2040 nM; in data set [2] it was 16 nM. Besides, at CYP3A4, the “MBI 3A4” value came out at 63%. In addition, the fraction unbound in data set [1] stood at 0.14.
